Source: doi:10.1101/2023.08.31.555806v1 (biorxiv, 2023)

Target: T1, VraS (GST-VraS) (Staphylococcus aureus, UniProt Q7A2Q0)
T1 sequence (Q7A2Q0 1-347): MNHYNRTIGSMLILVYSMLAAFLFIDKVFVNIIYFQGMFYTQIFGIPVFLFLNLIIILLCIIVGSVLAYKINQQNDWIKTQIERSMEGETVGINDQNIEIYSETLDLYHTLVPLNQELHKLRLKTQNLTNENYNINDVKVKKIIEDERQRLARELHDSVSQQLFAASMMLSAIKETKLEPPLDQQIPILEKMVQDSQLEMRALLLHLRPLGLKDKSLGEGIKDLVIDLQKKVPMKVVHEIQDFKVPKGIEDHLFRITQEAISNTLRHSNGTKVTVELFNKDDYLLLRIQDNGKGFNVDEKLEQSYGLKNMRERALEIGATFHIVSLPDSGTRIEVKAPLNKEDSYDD
Experiment: ATPase activity, pyruvate kinase/lactate dehydrogenase-coupled NADH fluorescence
Type: biochemical

IC50: 940 ± 290 nM
Structure (SMILES): CCSc1nc2ccc(NC(=O)NC(c3cc(C)ccn3)C3CC3)cc2o1 (stereo not shown) [compound 1, 1-(cyclopropyl(4-methylpyridin-2-yl)methyl)-3-(2-(ethylthio)benzo[d]oxazol-6-yl)urea]
